How the values were obtained:
Format in all cases: in vivo
Chilo suppressalis = assay: Example B1: activity against Chilo suppressalis (striped rice stemborer), artificial diet; conditions: for percent control (mortality, anti-feedant effect or growth inhibition) at 200 ppm: 144 h, L2 larvae, 6 days after infestation, read-out: control (at least one of mortality, anti-feedant effect, growth inhibition)
Outline: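 Diet-incorporation surface assay: aqueous dilutions of 10'000 ppm DMSO stock applied to artificial diet, dried; 6-8 L2 larvae/well; read day 6 post-infestation for mortality, antifeedant effect, growth inhibition vs untreated. Active if any category above untreated.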

Diabrotica balteata [1] = assay: Example B2: activity against Diabrotica balteata (corn root worm), maize sprouts; conditions: 96 h, L2 larvae, 4 days after infestation, read-out: effect in at least one of the two categories (mortality or growth inhibition)
Outline: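 At 200 ppm, test solutions diluted in water from 10′000 ppm DMSO stocks were spray-applied to maize sprouts set on agar. Once dry, each well received 6–10 second-instar larvae. Four days later, mortality and growth inhibition were compared with untreated controls.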

Plutella xylostella [2] = assay: Example B5: activity against Plutella xylostella (diamond back moth), artificial diet, eggs; conditions: 192 h, 8 days after infestation, read-out: effect in at least one of the two categories (mortality or growth inhibition)
Outline: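 Scoring at 8 days post-infestation compared mortality and growth inhibition with untreated controls, on diet treated at 200 ppm with water-diluted DMSO stock solutions. Diamondback moth eggs were placed on the dried diet in 24-well plates.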

Pseudoplusia includens = assay: Example B9: Pseudoplusia includens (soybean looper), larvicide, feeding/contact, soybean plants; conditions: Chrysodeixis includens; for percent effect (mortality or growth inhibition) at 50 ppm: 120 h, L2 larvae, 5 days after infestation, read-out: effect in at least one of the two categories (mortality or growth inhibition)
Outline: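 Soybean plants sprayed, cut and held in dishes on wet filter paper; infested 1 d after application with 5 L2 larvae. Mortality and growth inhibition assessed 5 days after infestation; tested at 50 ppm.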

Spodoptera littoralis = assay: Example B6: activity against Spodoptera littoralis (Egyptian cotton leaf worm), cotton leaf discs; conditions: foliar; for percent control (mortality, anti-feedant effect or growth inhibition) at 200 ppm: 72 h, L1 larvae, 3 days after infestation, read-out: control (at least one of mortality, anti-feedant effect, growth inhibition)
Outline: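 Read-out: mortality, feeding deterrence and growth inhibition, assessed 3 days after infestation relative to untreated samples. Sprayed, dried cotton leaf discs on agar each received five first-instar (L1) larvae; sprays were aqueous solutions prepared from 10′000 ppm DMSO stocks.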

Myzus persicae [3] = assay: Example B4: activity against Myzus persicae (green peach aphid), intrinsic activity; conditions: 120 h, test rate 12 ppm, 5 days after infestation
Outline: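 Mortality was read 5 days after infestation. Aphids on pea seedlings fed through a stretched Parafilm membrane on inverted 24-well plates containing sucrose solution mixed with test compound, which was diluted from 10′000 ppm DMSO stock.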

Plutella xylostella [4] = assay: B14b: Plutella xylostella (diamond back moth), larvicide L3, feeding/contact, Chinese cabbage
Description: (§1) Activity of compounds P5, P17 and P21 according to the preparatory examples and of a compound from WO 21/083936 against Spodoptera littoralis (Example B6 above), Chilo suppressalis (Example B1 above), Diabrotica balteata (Example B14a below), Plutella xylostella (Example B14b below) and Pseudoplusia includens (Example B9 above) is summarized in Table B14. B14a: Diabrotica balteata (Corn root worm). Larvicide, feeding/contact 3 Corn seedlings were placed on wetted filter paper in plastic cups, and 3 ml of diluted test solutions were pipetted onto them. The cups were infested with 10 L2 larvae and checked for mortality and growth regulation 5 days after treatment. B14b: Plutella xylostella (Diamond back moth). Larvicide L3, feeding/contact Chinese cabbage plants were sprayed with diluted test solutions in an application chamber. Cut off leaves were placed into petri dishes with wetted filter paper and infested 1 day after application with 10 L3 larvae. Samples were assessed 4 days after infestation for mortality and growth regulation.

Myzus persicae [5] = assay: Example B7b: Myzus persicae feeding/contact activity, eggplant leaf discs; conditions: foliar, 144 h, mixed ages, 6 days after infestation
Procedure: (§2) Eggplant leaf discs were placed onto agar in a 24-well microtiter plate and sprayed with aqueous test solutions prepared from 10′000 ppm DMSO stock solutions. After drying, the leaf discs were infested with an aphid population of mixed ages. The samples were assessed for mortality 6 days after infestation.

Diabrotica balteata [6] = assay: B14a: Diabrotica balteata (corn root worm), larvicide, feeding/contact, corn seedlings
Description: as §1

[7] = test system: Carpocapsa (Cydia) pomonella; assay: Example B10: Carpocapsa (Cydia) pomonella (codling moth), larvicide, feeding/contact, diet cubes; conditions: 336 h, L1 larvae, 14 days after infestation, read-out: effect in at least one of the two categories (mortality or growth inhibition)
Procedure: Diet cubes coated with paraffin were sprayed with diluted test solutions in an application chamber. After drying off the treated cubes (10 replicates) were infested with 1 L1 larvae. Samples were incubated at 26-27° C. and checked 14 days after infestation for mortality and growth inhibition. The following compounds gave an effect of at least 80% in at least one of the two categories (mortality or growth inhibition) at an application rate of 50 ppm: […]

Tetranychus urticae = assay: Example B8: activity against Tetranychus urticae (two-spotted spider mite), bean leaf discs; conditions: foliar, 192 h, mixed population (mobile stages), 8 days after infestation
Procedure: Bean leaf discs on agar in 24-well microtiter plates were sprayed with aqueous test solutions prepared from 10′000 ppm DMSO stock solutions. After drying the leaf discs were infested with a mite population of mixed ages. The samples were assessed for mortality on mixed population (mobile stages) 8 days after infestation.

Myzus persicae [8] = assay: Example B7a: Myzus persicae feeding/contact activity, sunflower leaf discs; conditions: foliar, 144 h, mixed ages, 6 days after infestation
Procedure: as §2, with “Sunflower” for “Eggplant”

Euschistus heros = assay: Example B3: activity against Euschistus heros (neotropical brown stink bug), soybean leaves; conditions: for percent effect (mortality or growth inhibition) at 200 ppm: 120 h, N2 nymphs, 5 days after infestation, read-out: effect in at least one of the two categories (mortality or growth inhibition)
Outline: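 Soybean leaves on agar sprayed with aqueous dilutions of DMSO stock (10′000 ppm), dried, then infested with N2 nymphs. Mortality and growth inhibition scored against untreated samples 5 days after infestation; application rate 200 ppm.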

Row | SMILES | mortality at 3.12 ppm (Chilo suppressalis) [%] | percent control (mortality, anti-feedant effect or growth inhibition) at 200 ppm (Chilo suppressalis) [%] | percent effect (mortality or growth inhibition) at 200 ppm (Diabrotica balteata [1]) [%] | percent effect (mortality or growth inhibition) at 200 ppm (Plutella xylostella [2]) [%] | percent effect (mortality or growth inhibition) at 50 ppm (Pseudoplusia includens) [%] | mortality at 12.5 ppm (Pseudoplusia includens; Pseudoplusia includens) [%] | mortality at 3.12 ppm (Spodoptera littoralis) [%] | percent control (mortality, anti-feedant effect or growth inhibition) at 200 ppm (Spodoptera littoralis) [%] | mortality at 12 ppm (Myzus persicae [3]) [%] | mortality at 3 ppm (Plutella xylostella [4]) [%] | mortality at 200 ppm (Myzus persicae [5]) [%] | mortality at 0.8 ppm (Diabrotica balteata [6]) [%] | percent effect (mortality or growth inhibition) at 50 ppm [7] [%] | mortality at 200 ppm (Tetranychus urticae) [%] | mortality at 200 ppm (Myzus persicae [8]) [%] | mortality at 200 ppm (Euschistus heros) [%] | percent effect (mortality or growth inhibition) at 200 ppm (Euschistus heros) [%] | mortality at 3 ppm (Pseudoplusia includens; Pseudoplusia includens, 3 ppm) [%] | mortality at 0.8 ppm (Plutella xylostella [4]) [%] | mortality at 0.8 ppm (Pseudoplusia includens; Pseudoplusia includens, 0.8 ppm) [%]
1 | C[C@H](Nc1ncnc2c(C(F)(F)F)cc(Cl)cc12)c1ncnn1-c1cnc(C(N)=O)cn1 [Compound P21, 5-[5-[(1S)-1-[[6-chloro-8-(trifluoromethyl)quinazolin-4-yl]amino]ethyl]-1,2,4-triazol-1-yl]pyrazine-2-carboxamide] | 0 | ≥ 80 | ≥ 80 | ≥ 80 | ≥ 80 | 40 | 100 | ≥ 80 | ≥ 80 | 100 | ≥ 80 | 65 | – | – | – | – | – | – | – | –
2 | C[C@H](Nc1ncnc2c(I)cc(Cl)cc12)c1ncnn1-c1cc(C(N)=O)ncn1 [Compound P13, 6-[5-[(1S)-1-[(6-chloro-8-iodo-quinazolin-4-yl)amino]ethyl]-1,2,4-triazol-1-yl]pyrimidine-4-carboxamide] | – | ≥ 80 | ≥ 80 | ≥ 80 | ≥ 80 | – | – | ≥ 80 | ≥ 80 | – | – | – | ≥ 80 | ≥ 80 | ≥ 80 | – | – | – | – | –
3 | C[C@H](Nc1ncnc2c(C(F)(F)F)cc(Cl)cc12)c1ncnn1-c1cnc(C(=O)NCC#N)cn1 [Compound P71] | – | ≥ 80 | ≥ 80 | ≥ 80 | – | – | – | ≥ 80 | ≥ 80 | – | – | – | – | ≥ 80 | – | – | – | – | – | –
4 | C[C@H](Nc1ncnc2c(Cl)cc(C(F)(F)F)cc12)c1ncnn1-c1cc(C(N)=O)ncn1 [Compound P17, 6-[5-[(1S)-1-[[8-chloro-6-(trifluoromethyl)quinazolin-4-yl]amino]ethyl]-1,2,4-triazol-1-yl]pyrimidine-4-carboxamide] | 40 | ≥ 80 | ≥ 80 | ≥ 80 | ≥ 80 | 100 | 100 | ≥ 80 | ≥ 80 | 100 | – | 100 | ≥ 80 | ≥ 80 | – | 80 | ≥ 80 | 80 | 100 | –
5 | CNC(=O)c1cc(-n2ncnc2[C@H](C)N(C)c2ncnc3c(C(F)(F)F)cc(Cl)cc23)ncn1 [Compound P9, 6-[5-[(1S)-1-[[6-chloro-8-(trifluoromethyl)quinazolin-4-yl]-methyl-amino]ethyl]-1,2,4-triazol-1-yl]-N-methyl-pyrimidine-4-carboxamide] | – | ≥ 80 | ≥ 80 | ≥ 80 | ≥ 80 | – | – | ≥ 80 | ≥ 80 | – | – | – | ≥ 80 | – | ≥ 80 | – | ≥ 80 | – | – | –
6 | C[C@H](Nc1ncnc2c(C(F)(F)F)cc(Cl)cc12)c1ncnn1-c1cc(C(N)=O)ncn1 [Compound P5, 6-[5-[(1S)-1-[[6-chloro-8-(trifluoromethyl)quinazolin-4-yl]amino]ethyl]-1,2,4-triazol-1-yl]pyrimidine-4-carboxamide] | 80 | ≥ 80 | ≥ 80 | ≥ 80 | ≥ 80 | 100 | 100 | ≥ 80 | ≥ 80 | 100 | – | 100 | – | – | – | 100 | ≥ 80 | – | 95 | 70
7 | C[C@H](Nc1ncnc2c(C(F)(F)F)cc(C(F)(F)F)cc12)c1ncnn1-c1ccc(C(N)=O)cn1 [WO 21/083936 P.157, reference compound] | 0 | – | – | – | – | 10 | 0 | – | – | 65 | – | 35 | – | – | – | – | – | – | – | –
8 | C[C@H](Nc1ncnc2c(Cl)cc(I)cc12)c1ncnn1-c1cc(C(N)=O)ncn1 [Compound P2, 6-[5-[(1S)-1-[(8-chloro-6-iodo-quinazolin-4-yl)amino]ethyl]-1,2,4-triazol-1-yl]pyrimidine-4-carboxamide] | – | ≥ 80 | ≥ 80 | ≥ 80 | ≥ 80 | – | – | ≥ 80 | ≥ 80 | – | – | – | ≥ 80 | – | ≥ 80 | – | – | – | – | –
9 | C[C@@H](c1ncnn1-c1cc(C(N)=O)ncn1)N(C)c1ncnc2c(C(F)(F)F)cc(Cl)cc12 [Compound P50, 6-[5-[(1S)-1-[[6-chloro-8-(trifluoromethyl)quinazolin-4-yl]-methyl-amino]ethyl]-1,2,4-triazol-1-yl]pyrimidine-4-carboxamide] | – | ≥ 80 | ≥ 80 | ≥ 80 | ≥ 80 | – | – | ≥ 80 | ≥ 80 | – | ≥ 80 | – | – | ≥ 80 | – | – | ≥ 80 | – | – | –

From US20260132125A1, “PESTICIDALLY ACTIVE FUSED BICYCLIC HETEROAROMATIC COMPOUNDS” (priority 2022, published 2026)
